In a melting point compilation (Tetko et al.; mined from patent text by program, amines drawn as free bases though some values may be those of a salt):

| melting point | SMILES |
| --- | --- |
| 49 to 50 °C | Nc1cccc2ccc(OCC3CC3)cc12 |
| 139 to 140 °C | O=C(Nc1ccccn1)C(CC1CCCC1)c1ccc(-c2cccnc2)cc1 (stereo not given) |
| 107 to 111 °C | O=C(O)CN1C(=O)C(NC(=O)[C@@H](S)Cc2ccccc2)CCC2CC=CC=C21 (stereo not given in full) |
| 103 to 112 °C | COCCOc1cccc(-n2cc(-c3ccc(O)cc3)c3c(N)ncnc32)c1 |
| 207 °C | CCCCc1[nH]c(CC)nc(=O)c1Cc1ccc(-c2ccccc2C(=O)O)cc1 |
| 198 to 205 °C | O=C(Nc1nc2c(Oc3cc(-c4ccc(C(F)(F)F)cc4)ncn3)cccc2s1)C(O)c1ccccc1 (stereo not given) |
| 207 °C | O=C(NC(Cc1ccccc1)C(=O)O)c1ccc2cc(OCc3ccccc3)ccc2c1 (stereo not given) |
| 141 to 143 °C | CN(CCN1CCNC1=O)Cc1cn(-c2ccc(F)cc2)c2ccc(Cl)cc12 |
| 68 to 70 °C | Cc1cc(C)cc(-c2cccc3ccccc23)c1 |
| 170 to 171 °C | CCn1ncc2nc(C(=O)N3CCN(C)CC3)c(-c3ccccc3)nc21 |
| 223 °C | CS(=O)(=O)c1cccc(NC(=O)c2cnn3c(C(F)F)cc(-c4ccc(OC(F)(F)F)cc4)nc23)c1 |
| 92 to 93 °C | COc1ccc(C(=O)C=Cc2ccccc2F)cc1 |
| 219 to 220 °C | CSc1c(CC(=O)O)cc(C)c2c3ccccc3n(Cc3ccccc3)c12 |
| 122 to 124 °C | CC(C)(O)c1ccc(CC(=O)Nc2cccnc2Oc2cccnc2)cc1 |
| 77 °C | COC(=O)c1ccc(C(O)c2cc3cc(Cl)cnc3n2S(=O)(=O)c2ccc(C(C)C)cc2)cc1 (stereo not given) |
| 155 to 157 °C | O=C1CCC(N2C(=O)c3cccc(CNC(=O)c4cccc(C(F)(F)F)c4F)c3C2=O)C(=O)N1 (stereo not given) |
| 138 to 141 °C | COc1ccc(C)cc1NC(=O)Nc1ccc(N2CCN(C(=O)Nc3ccc(CO)cc3C)CC2)cc1 |
| 75 to 77 °C | O=C(Nc1ccc(OCCN2CCOCC2)c2ccccc12)c1cc(F)cc(OC2CCOCC2)c1 |
| 94 to 95 °C | O=C1CN2Cc3cc(OCCCC(=O)N(CCCCCCOC(=O)c4ccccc4)C4CCCCC4)ccc3N=C2N1 |

| melting point | SMILES |
| --- | --- |
| 114 to 116 °C | CN(Cc1cc(C(F)(F)F)cc(C(F)(F)F)c1)C(=O)c1cnc(CC#N)nc1-c1ccccc1 |
| 120 to 122 °C | CC(C)(C)OC(=O)Nc1ccc(C#Cc2ccccc2Cl)cc1N |
| 95 to 96 °C | CC(=O)Oc1ccc2c3c(ccc2c1)C1CC=CC1(C)CC3 (stereo not given) |
| 162 to 164 °C | O=[N+]([O-])c1ccc(CCC2CCN(c3cc(Cl)nnc3Cl)CC2)cc1 |
| 148 to 150 °C | O=C(CC(=O)c1ccccc1C(=O)O)c1ccc(Cl)cc1 |
| 149 to 150 °C | CN1C(C(=O)Nc2ccccn2)=C(OCOC(=O)c2ccccc2)c2ccccc2S1(=O)=O |
| 311 to 314 °C | O=C(O)c1cnc2c3cc(NC(=O)C4CCCCC4)ccc3ncn2c1=O |
| 158 to 161 °C | OC(COc1ccn(-c2ccc(Cl)c(Cl)c2)n1)CN1CCOCC1 (stereo not given) |
| 50 °C | COC(=O)CCCOc1cccc(CNC(=O)C2Cc3ccccc3N2S(=O)(=O)c2ccc(-c3cccc(C(F)(F)F)c3)cc2)c1 (stereo not given) |
| 57 to 59 °C | Cc1cc(SC(C)C)c(NC(=O)CN2CCN(CCSc3nc4cccc([N+](=O)[O-])c4o3)CC2)c(SC(C)C)n1 |
| 235 to 238 °C | Nc1ccccc1S(=O)(=O)c1cc(C(=O)O)ccc1Cl |
| 89 °C | COC(=O)c1c(C)nc2ccccc2c1NCc1ccc(Br)cc1 |
| 125 °C | COc1ccc2ccc(OC)c3c2c1CCC3CCNC(C)=O (stereo not given) |
| 94 °C | CN(C(=O)COc1nc2c(F)cccc2s1)c1ccccc1 |
| 161 to 162 °C | CS(=O)(=O)c1ccc(C2=C(c3ccccc3)C(=O)OC2)cc1F |
| 169 °C | CCOc1cc(C(CC(N)=O)N2Cc3ccccc3C2=O)ccc1OC (stereo not given) |
| 276 to 279 °C | Cn1c2c(c(=O)n3nc(-c4ccccc4)cc13)CN(C1CCCCC1)C2=O |
| 224 to 230 °C | O=c1[nH]c(=O)n(Cc2ccc(OCCc3coc(-c4ccccc4)n3)cc2)[nH]1 |
| 63 to 64 °C | OCCCc1ccc(OCc2ccccc2)cc1 |

Second part, the compound before the results:

| SMILES | melting point |
| --- | --- |
| CCNc1nc(-c2cccc(C3=Nc4cc(N(C)C)c(Cl)cc4NC(=O)C3)c2)cs1 | 122 to 123 °C |
| CCCCC1(CCCC)CS(=O)(=O)c2ccc(N(C)C)cc2[C@H](c2ccc(OCCOCCC(C(=O)O)C(=O)O)cc2)[C@@H]1O | 120 °C |
| O=C1CSCC(C(=O)O)N1 (stereo not given) | 152 to 153 °C |
| CCOC(=O)c1sc(Cl)nc1C(F)(F)F | 58 to 59 °C |
| CC(C=CC(=O)NCCCN1CCCCC1)=CCc1ccc(Cl)c(Cl)c1 | 50 to 60 °C |
| COc1ccc2c(c1)C13CCN(C)C(C2)C1(O)CCOC3 (single isomer, unassigned; (+)) | 108 to 110 °C |
| Oc1ccc(CCCn2ccnc2)cc1 | 158 to 160 °C |
| CC(=O)NCCCCc1ccc(C(=O)CC(C)C#N)cc1 (stereo not given) | 89 to 90 °C |
| CC1=C(C(=O)OCOC(=O)C(C)(C)C)C(c2cccc([N+](=O)[O-])c2)C(C(=O)OCOC(=O)C(C)(C)C)=C(C)N1 | 124 to 125 °C |
| COc1cc2c(cc1OC)C(=O)C(=Cc1cc(Cl)cc(Cl)c1)CC2 | 200 to 201 °C |
| O=C(NC(Cc1ccc(OCc2ccc(Cl)cc2)cc1)C(=O)O)c1cn2ccc(-c3ccc(Cl)cc3)cc2n1 (stereo not given) | 261 °C |
| CC(=O)CSc1nnnn1C | 31 °C |
| CC(CC(=O)NC(=O)OC(C)(C)C)Nc1ccccc1 (stereo not given) | 117 to 118 °C |
| Oc1cc(C(F)(F)F)nn1C1CCCCO1 (stereo not given) | 129 to 130 °C |
| CCOC(=O)NCCc1cccc(-c2ccnc3c(Cl)cnn23)c1 | 100 to 102 °C |
| C=CCOc1ccc(C(=C)C)cc1 | 22 to 23 °C |
| CC(C)C(NC(=O)c1ccc(C(=O)NCc2ccc([N+](=O)[O-])cc2)cc1)C(=O)N1CCCC1C(=O)NC(C(=O)C(F)(F)F)C(C)C (mixture of isomers) | 94 to 96 °C |
| Nc1ccc2ccc(Oc3ccc(Cl)cc3)nc2n1 | 177 °C |
| CC1Cc2ccc(Cl)cc2C(c2ccc([N+](=O)[O-])cc2)=NN1C(N)=O (stereo not given) | 223 to 234 °C |
| CCOc1ccc(C(=O)C#N)cc1 | 43 °C |
| CCOc1ncc(C(C)=O)cc1C(=O)Nc1c(C(N)=O)n[nH]c1CC | 217 to 219 °C |

| SMILES | melting point |
| --- | --- |
| Cc1ccc(NC(N)=S)c(O)c1 | 175 to 177 °C |
| c1ccc2c(c1)CNC1CC2c2ccccc21 (stereo not given) | 115 to 117 °C |
| Cc1cc(C)c2c(-c3ccc(C(C)C)cc3)csc2c1 | 83 to 84 °C |
| CCCN1CC(c2ccc(C)cc2)=C(c2ccc(S(C)(=O)=O)cc2)C1=O | 156 to 158 °C |
| COc1ccc(-n2cc(/C=C(\C#N)C(=O)NS(C)(=O)=O)c(-c3ccc(Cl)c(F)c3)n2)cc1Cl | 280 to 282 °C |
| CC(C)(C)OC(=O)[C@H](CC1CC1)N1C(=O)NC(C(F)(F)F)(C(F)(F)F)C1=O | 76 to 77 °C |
| O=C(O)C1=Cc2cc(Cl)cc(I)c2OC1C(F)(F)F (stereo not given) | 220 to 223 °C |
| O=C1c2ccccc2C(=O)N1CCc1ncc(C(F)(F)F)cc1Cl | 147 to 148 °C |
| CCCCn1c(COCC)nc2c(N)nc3ccc(Br)cc3c21 | 182 to 183 °C |
| CC1(C)SCCN(S(=O)(=O)c2ccc(-c3ccc(Br)cc3)cc2)C1C(=O)NO (stereo not given) | 190 to 192 °C |
| CCc1nsc(C(=O)O)c1C(=O)OC | 43 to 45 °C |
| CNCC1Cc2cc(C(F)(F)F)cc(-c3cccc(F)c3F)c2O1 (stereo not given) | 123 to 125 °C |
| CCCC(=O)NCCCc1cccc(OCC2CC2)c1 | 36 to 37 °C |
| CCOC(=O)C1=C(C)N(c2ccc(Cl)cc2)C(=O)CC1 | 124 to 126 °C |
| CC(=O)SCCN(CCC1CCCCC1)C(=O)N[C@@H](C)C(=O)O | 89.5 to 90.5 °C |
| CCC(C)c1cccc(C(C)CC)c1C(=O)O (stereo not given) | 125 to 126 °C |
| COc1ccc(-c2c(S(C)(=O)=O)ccc(C(=O)c3cnn(C(C)(C)C)c3OC(C)=O)c2C)cc1 | 160 to 163 °C |
| CSC(=NCCSCc1ccsn1)NC#N | 85 to 87 °C |
| CCCCCCc1cc2c(cc1OCCCC(=O)O)C(=O)CCC2 | 81 °C |
| O=C1c2c(Br)cccc2-n2cnc(C(=O)n3ccnc3)c2[C@@H]2CCCN12 | 215 to 217 °C |
| COc1cc(OC)cc(\C(C)=C/C=C/C(C)=C/C(=O)Nc2ccc(O)cc2)c1 | 162 to 163 °C |

| SMILES | melting point |
| --- | --- |
| CCn1c(=O)c2[nH]c(/C=C/c3ccc(N(C)C)cc3)nc2n(CC)c1=O | > 300 °C |
| CCc1cc2c(s1)-n1nc(C(N)=O)nc1C(OC(C)=O)N=C2c1ccccc1Cl (stereo not given) | 168 to 170 °C |
| COC(=O)CN1C(=O)c2c(c3cc(C)ccc3n2C)S1(=O)=O | 248 °C |
| COCCOC(=O)Nc1cc(N2CC=CCC2)nc(N)n1 | 136 °C |
| CCCCNc1nc(C)no1 | 62 to 65 °C |
| CCc1ccc(NC(=O)Nc2cc(C(C)(C)C)sc2C(=O)NC)cc1 | 101 to 104 °C |
| COC(=O)C1=C(C)NC2=C(C(=O)NCC2)C1c1ccc(F)c(Br)c1 (stereo not given) | 150 to 152 °C |
| CC(C)Cc1cc2c(s1)C(C(=O)O)CC2=O (stereo not given) | 80 °C |
| CN(C)c1ncc(O)c(-c2ccc(Cl)c(Cl)c2)n1 | 188 to 189 °C |
| Cc1nc(=O)n(C)cc1Cl | 132 to 134 °C |
| CCC(=O)N[C@@H]1CCc2ccc(OC)cc2[C@H]1O | 162 to 163 °C |
| COC(=O)C1=C(S(N)(=O)=O)CCC1 | 83 to 84 °C |
| CCOC(=O)C(C#N)=CNc1ccc(C=C(C#N)C(=O)OCC)o1 | 206 to 208 °C |
| N#Cc1cnn(C2CCCCC2)c1N | 99 to 103 °C |
| S=C(Nc1cccc(Cl)c1)N1CCCSC1c1ccc(Br)cc1 (stereo not given) | 144 to 146 °C |
| CC1(C)COC(=O)N1c1nc(-c2ccc(Cl)c(Cl)c2)cs1 | 134 to 137 °C |
| O=C1OCCC1NS(=O)(=O)c1ccc(Cl)cc1 (racemic) | 113 to 115 °C |
| Cc1cc(C2(c3ccc(O)cc3)c3ccccc3-c3ccccc32)cc(C)c1O | 90 to 105 °C |
| CCCc1c(CO)ncn1S(=O)(=O)N(C)C | 86 to 88 °C |
| CC(=O)Nc1nc2c(ncn2COCCOC(C)=O)c(=O)[nH]1 | 202 to 204 °C |
